Article PMC9354638, “Targeting p21-activated kinase 4 (PAK4) with pyrazolo[3,4-d]pyrimidine derivative SPA7012 attenuates hepatic ischaemia-reperfusion injury in mice” (Journal of Enzyme Inhibition and Medicinal Chemistry, 2022)

What was measured:
[1] = target: T1, PAK4 (Homo sapiens, UniProt O96013); assay: HotSpot kinase assay (Reaction Biology Corp.), PAK4 enzyme inhibition; type: biochemical; settings: ATP 10 μM
T1 construct: purchased Reaction Biology Corporation (Malvern, PA, USA)
Description: To examine the enzyme activity, HotSpot kinase assay was performed at Reaction Biology Corporation (Malvern, PA, USA). The kinase and substrate pairs were prepared in reaction buffer: 20 mM HEPES at pH 7.5, 10 mM MgCl2, 1 mM EGTA, 0.02% Brij 35, 0.02 mg/mL BSA, 0.1 mM Na3VO4, 2 mM DTT, and 1% DMSO. Compounds were added into the kinase reaction mixture and incubated for 20 min. Then, ^32 P-ATP was introduced to the mixture to initiate the reaction carried out at 10 μM of ATP concentration. After 2 h at room temperature, the mixture was spotted onto P81 ion exchange paper and kinase activity was then evaluated utilising the filter-binding method. Compounds were tested for single dose enzyme inhibition at a concentration of 20 μM. For the control compound, staurosporine was tested in a 10-dose IC50 mode. To determine the IC50 value, the compounds were tested for 10-doses with 3-fold serial dilution starting at 100 μM.
Synthesised compounds were evaluated for their in vitro PAK4 enzyme inhibitory activities. In vitro kinase assays were performed using HotSpot kinase assays for relative enzyme inhibitory activity at a single concentration (20 μM) and IC50 assessment at an ATP concentration of 10 μM (Figure 1(B)). […] For the allosteric pocket binder, cyclohexyl group (SPA7012) was preferable to the smaller dimethyl (SPA7011) or hydroxymethyl group (SPA7013), and the aromatic ring (SPA7014) reduced activity compared to the saturated ring (SPA7012). In vitro enzyme IC50 values appeared in the order of SPA7012, SPA7017, and SPA7016. […] Molecular docking analysis was performed on the human PAK4 catalytic domain structure complexed with GNE-2861 (PDB code: 4O0V). The binding pose of SPA7012 overlapped well with the crystal structure of GNE-2861, with the allosteric binder properly positioned in the specific back pocket. The oxygen atom in the tertiary alcohol of the hydrophobic allosteric binder formed hydrogen bonds with the backbone of Phe459 and the side chain of Glu366 (Figure 1(D)). The amine group and nitrogen atom in the pyrazolo[3,4-d]pyrimidine core scaffold also formed hydrogen bonds with Lue398 at the hinge region. Finally, SPA7012 was decided as a lead compound for further examination with satisfactory potency and subtype selectivity.

[2] = system: primary hepatocytes; assay: Hypoxia-reoxygenation (H/R) injury in primary hepatocytes; type: cell-based, mouse
Description: Primary hepatocytes were prepared from 8 to 10 week old C57BL/6 male mice by perfusion. […] Hepatocytes were resuspended in DMEM/F12 supplemented with 10% FBS, 10 units/mL penicillin, 10 μg/mL streptomycin, and 10 nM dexamethasone mixed with 42% Percoll, and then centrifuged for 5 min at 1,300 rpm. The cells were plated at 1 × 10^6 cells/well in 6-well culture dishes.
Primary hepatocytes were incubated at 37 °C in anaerobic jars (Oxoid, Basingstoke, Hampshire, UK) with oxygen-absorbing packs (AnaeroGen, Oxoid). […] Following various periods of hypoxia, reoxygenation of cells was initiated by opening the chamber and replacing the hypoxic medium with an oxygenated medium.
H/R-induced apoptosis was monitored using the Annexin V-propidium iodide (PI) double-staining kit (BD Biosciences, San Jose, CA, USA) according to the instructions of the manufacturer, allowing quantification by flow cytometry (BD Biosciences). The proportion of apoptotic cells was defined as the percentage of Annexin V-positive cells […].
Intracellular ROS levels were measured using 2′,7′-dichlorofluorescein diacetate (DCF-DA), which converts to fluorescent […] in cells when exposed to ROS. Briefly, after H/R injury, hepatocytes were loaded with 20 μM DCF-DA (Invitrogen) for 10 min at 37 °C. The DCF fluorescence intensity was measured by fluorescence spectrophotometry with 485 nm excitation and 538 nm emission and expressed as a percentage relative to control.
Alanine aminotransferase (ALT) and aspartate aminotransferase (AST) in serum (Asan Pharm, Seoul, Korea), glutathione (GSH, Arbour Assays, Ann Arbour, MI, USA), malondialdehyde (MDA, ab118970, Abcam, Cambridge, UK) in liver tissues, and lactate dehydrogenase (LDH, Biovision, Milpitas, CA, USA) in culture medium were analysed using specific kits. Serum levels of IL-1β, IL-6, TNF-α, and CCL-2 were detected using ELISA kits (all from Invitrogen).
Total RNA was extracted from frozen liver tissues or primary hepatocytes using TRIzol reagent (Invitrogen). RNA was treated with isopropanol, dried using 70% ethanol, and dissolved in diethyl pyrocarbonate-treated distilled water. First-strand cDNA was generated using the random hexamer primer provided in the first-strand cDNA synthesis kit (Applied Biosystems, Foster City, CA, USA). Specific primers were designed using PrimerBank (https://pga.mgh.harvard.edu/primerbank, Table 1). qPCR reactions were performed in a final volume of 10μ L containing 10 ng reverse-transcribed total RNA, 200 nM forward and reverse primers, and PCR master mixture. qPCR was performed in 384-well plates using an ABI Prism™ 7900HT Sequence Detection System (Applied Biosystems).
Nuclear and cytoplasmic fractions were prepared using the NE-PER Nuclear and Cytoplasmic Extraction kit (Thermo Fisher Scientific, Waltham, MA, USA). Tissue homogenates or cell lysates (15 μg) were separated by 6–14% SDS-PAGE and transferred to PVDF membranes. After blocking with 5% skim milk, blots were probed with primary antibodies against: PAK4 (G222), p-PAK4 (S474), p-IKKβ (S176/180), p-IκBα (S32), p-p65 (S536), cleaved caspase-3 (Asp175), Bax (Cell Signalling Technology, Beverly, MA, USA), GAPDH (A531), lamin B1(L75), Bcl2(P65), NQO1 (F252) (Bioworld Technology, St Louis Park, MN, USA), NF-κB p65 (C-20), IKBα (H-4), IKKβ (10A9B6) (Santa Cruz Biotechnology, Dallas, TX, USA), Nrf2 (Proteintech, Rosemont, IL, USA), HO-1 (Enzo Life Sciences, Farmingdale, New York, USA), and p-Thr (Merck KGaA, Darmstadt, Germany). For co-immunoprecipitations, 600 μg protein was incubated with anti-Nrf2 antibodies (Proteintech, Sankt Leon-Rot, Germany) overnight at 4 °C followed by protein G agarose for 2 h at 4 °C. Blots were probed with antibodies against PAK4, Nrf2, or p-Thr. Immunoreactive bands were detected with a Las-4000 imager (GE Healthcare Life Science, Pittsburgh, PA, USA).

T1 sequence (O96013 whole entry): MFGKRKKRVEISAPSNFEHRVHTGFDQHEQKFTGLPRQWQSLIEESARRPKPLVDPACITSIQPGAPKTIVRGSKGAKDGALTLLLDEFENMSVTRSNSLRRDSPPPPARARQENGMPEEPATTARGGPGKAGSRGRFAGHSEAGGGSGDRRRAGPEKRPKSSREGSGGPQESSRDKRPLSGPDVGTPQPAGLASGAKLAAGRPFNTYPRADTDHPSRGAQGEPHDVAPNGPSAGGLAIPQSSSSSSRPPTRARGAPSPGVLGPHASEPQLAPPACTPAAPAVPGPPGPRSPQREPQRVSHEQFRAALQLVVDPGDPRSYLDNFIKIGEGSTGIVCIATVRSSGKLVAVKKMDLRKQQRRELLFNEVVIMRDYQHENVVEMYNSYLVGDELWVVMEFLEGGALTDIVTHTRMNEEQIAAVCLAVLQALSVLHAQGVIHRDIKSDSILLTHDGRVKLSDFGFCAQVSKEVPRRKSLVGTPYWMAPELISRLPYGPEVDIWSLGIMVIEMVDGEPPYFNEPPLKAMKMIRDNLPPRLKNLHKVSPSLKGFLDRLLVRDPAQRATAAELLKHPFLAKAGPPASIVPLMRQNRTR

IC50 ([1]; 10-dose, 3-fold serial dilution starting at 100 μM): 0.77 µM
inhibition at 20 µM ([1]; relative percentage inhibition at 20 μM of compounds with staurosporine, read-out: PAK4 enzyme inhibition % inhibitory activity): 97%
Compound: Cc1nn(-c2cccc(C#CC3(O)CCCCC3)c2)c2ncnc(N)c12 [Compound 14b, 3-(4-Amino-3-methylpyrazolo[3,4-d]pyrimidin-1-yl)phenylethynylcyclohexan-1-ol]
H/R-induced oxidative stress (DCF fluorescence, MDA, GSH) ([2]; 1 μM): decrease
Cell damage (LDH release) after H/R ([2]; 1 μM before reoxygenation, 12 h reoxygenation, vs only H/R): markedly decreased
H/R-induced apoptotic cell death ([2]; 1 μM, Annexin-V staining and Western blotting): decrease
Phosphorylation levels of IKKβ and p65 in primary hepatocytes ([2]; 1 μM, H/R, vs control group): decreased
Protein levels of IκBα in primary hepatocytes ([2]; 1 μM, H/R, vs control group): increased
H/R-induced cytokine release ([2]; 1 μM, culture media protein and hepatocyte mRNA): decrease
